Results reported in paper PMC10762035, “Molecular basis of human trace amine-associated receptor 1 activation” (Nature Communications, 2024).
Positions count from the first letter of the chain named. Values joined by “and” are separate entries in the source; they are usually repeats but may differ in a detail not shown here. Identical values can stand only once.

Assays:
Type in all cases: cell-based
[1] = target: T1, hTA1 (Homo sapiens, UniProt Q96RJ0); test: GloSensor cAMP accumulation assay, concentration response, wild-type hTA1 in transfected HEK293T cells; details: for Dose-response curves for asenapine vs endogenous trace amines: log[Compound], replicate values (N=2);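 on all read-outs here: luminescence read after 30 min compound exposure at room temperature in cells preloaded with D-Luciferin, reflecting Gs-driven cAMP rise, efficacy scaled to the maximal β-PEA response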
T1 construct: expressed in transfected cells; host or cells: HEK293T
T1 sequence (Q96RJ0 1-339): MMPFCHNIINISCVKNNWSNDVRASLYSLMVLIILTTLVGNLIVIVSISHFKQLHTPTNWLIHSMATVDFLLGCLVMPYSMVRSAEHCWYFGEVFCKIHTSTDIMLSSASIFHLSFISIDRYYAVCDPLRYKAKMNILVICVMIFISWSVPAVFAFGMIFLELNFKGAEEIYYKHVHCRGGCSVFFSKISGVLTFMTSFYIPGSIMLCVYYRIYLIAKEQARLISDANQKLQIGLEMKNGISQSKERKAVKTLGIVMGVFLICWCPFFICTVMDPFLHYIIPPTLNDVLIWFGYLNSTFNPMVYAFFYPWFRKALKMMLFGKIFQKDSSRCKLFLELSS

[2] = target: T2, hTA1 b2N (Homo sapiens, UniProt Q96RJ0); test: GloSensor cAMP accumulation assay, b2N construct; details: b2N, n=2
T2 construct: read by me as the first 25 residues of β2AR (N); expressed in transfected cells; host or cells: HEK293T
T2 sequence (Q96RJ0 with tags, fused parts or gaps): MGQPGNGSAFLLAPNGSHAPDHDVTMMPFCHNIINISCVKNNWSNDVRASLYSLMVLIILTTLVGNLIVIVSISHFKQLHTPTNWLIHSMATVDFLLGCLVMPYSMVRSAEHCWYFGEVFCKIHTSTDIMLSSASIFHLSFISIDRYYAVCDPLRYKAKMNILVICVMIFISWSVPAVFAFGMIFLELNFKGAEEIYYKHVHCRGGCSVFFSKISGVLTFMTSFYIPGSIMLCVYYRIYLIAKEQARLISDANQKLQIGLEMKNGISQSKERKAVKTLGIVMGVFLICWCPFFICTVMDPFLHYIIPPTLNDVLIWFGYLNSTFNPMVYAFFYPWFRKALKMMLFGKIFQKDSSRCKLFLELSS

[3] = target: T3, hTA1 C13S (Homo sapiens, UniProt Q96RJ0, C13S); test: GloSensor cAMP accumulation assay, C13S mutant; details: for C13S - Normalized Luminescence Counts (N=2): log[Compound], single wells
T3 construct: expressed in transfected cells; host or cells: HEK293T
T3 sequence (Q96RJ0 1-339 C13S): T1 sequence (Q96RJ0 1-339) with C13S

## NCCc1ccccc1 [β-PEA, β-phenethylamine]
[1]; WT hTA1, Figure 5B, β-PEA = 100, average of the independent experiments
  Emax values, Avg: 100
[1]; WT hTA1, Figure 5B, β-PEA = 100, each row one independent experiment (3 replicates)
  Emax values, Mean: 100
[1]; WT hTA1, average of the two experiments, Figure 2B source data
  pEC50 values, Avg: 7.094
[1]; WT hTA1, each line an independent experiment, 3 replicates, Figure 2B source data
  pEC50 values, Mean: 7.155 and 7.032
[1]; WT hTA1, β-PEA = 100, average of the two experiments
  Emax values, Avg: 100
[1]; WT hTA1, β-PEA = 100, each line an independent experiment, 3 replicates
  Emax values, Mean: 100
[1]; WT, Avg of the two experiments, β-PEA = 100
  Emax values, Avg: 100
[1]; WT, average of the experiments, β-PEA = 100
  Emax values, Avg: 100
[1]; WT, average of the two experiments
  Emax values, Avg: 100
[1]; WT, mean of each independent experiment (3 replicates), β-PEA = 100
  Emax values, Mean: 100
[1]; WT, mean of one experiment (3 replicates), β-PEA = 100
  Emax values, Mean: 100
[1]; WT, single experiments (3 replicates each), β-PEA = 100
  Emax values, Mean: 100
[1]; M = -5
  Dose-response curves for asenapine vs endogenous trace amines: 114.55 and 104.58 and 118.623 and 102.53 and 95.7683 and 107.085
[1]; M = -5.522
  Dose-response curves for asenapine vs endogenous trace amines: 96.3904 and 87.8446 and 97.5922 and 98.0692 and 90.9789 and 92.0588
[1]; M = -6
  Dose-response curves for asenapine vs endogenous trace amines: 88.2006 and 75.1148 and 94.0536 and 103.14 and 88.8658 and 89.805
[1]; M = -6.522
  Dose-response curves for asenapine vs endogenous trace amines: 73.7573 and 64.299 and 91.1383 and 74.7791 and 68.7219 and 73.7461
[1]; M = -7
  Dose-response curves for asenapine vs endogenous trace amines: 70.4636 and 45.5827 and 61.4726 and 66.5619 and 44.258 and 53.6961
[1]; M = -7.522
  Dose-response curves for asenapine vs endogenous trace amines: 36.1467 and 21.3027 and 35.9464 and 26.7905 and 17.9158 and 22.3766
[1]; M = -8
  Dose-response curves for asenapine vs endogenous trace amines: 22.727 and 16.7405 and 21.3472 and 13.3611 and 11.9525 and 11.6238
[1]; M = -8.522
  Dose-response curves for asenapine vs endogenous trace amines: 4.5 and 4.523 and 5.969 and 4.393 and 2.514 and 2.6083
[1]; M = -9
  Dose-response curves for asenapine vs endogenous trace amines: 1.986 and 1.318 and 1.8743 and 1.716 and 1.012 and 1.106
[1]; M = -9.522
  Dose-response curves for asenapine vs endogenous trace amines: -1.063 and -1.33 and -0.4402 and -0.06817 and 0.1666 and -0.4908
[1]; M = -10
  Dose-response curves for asenapine vs endogenous trace amines: -0.596 and -1.264 and -0.5515 and -0.4438 and -0.7725 and -0.6786
[1]; M = -10.522
  Dose-response curves for asenapine vs endogenous trace amines: -1.3749 and -1.931 and -0.6405 and 0.0727 and -0.5847 and -1.101
[1]; M = -11
  Dose-response curves for asenapine vs endogenous trace amines: -0.1286 and -1.241 and 0.2497 and 0.6362 and -0.3499 and -0.7725
[1]; M = -11.522
  Dose-response curves for asenapine vs endogenous trace amines: -0.01735 and -1.575 and -0.7963 and 0.5892 and -0.3969 and -0.256
[1]; M = -12
  Dose-response curves for asenapine vs endogenous trace amines: -1.353 and -1.3749 and -1.286 and 0.02574 and -0.4908 and -0.3029
[1]; M = -12.522
  Dose-response curves for asenapine vs endogenous trace amines: -1.152 and -1.664 and -0.9075 and 0.5892 (2×) and 0.4483
[1]; wt hTA1, HEK293T, n=3
  Span ± SEM (Emax normalized to β-PEA): 100 ± 2.26
  pEC50 ± SEM: 7.09 ± 0.05
[1]; wt hTA1, HEK293T, n=3, read-out: EC50
  EC50: 80.6 nM
[1]; wt hTA1, relative to β-PEA
  Emax: 100.0%
[2]
  Span ± SEM (Emax normalized to β-PEA): 100 ± 3.11
  pEC50 ± SEM: 7.59 ± 0.07
[2]; read-out: EC50
  EC50: 25.4 nM
[3]; C13S
  ΔEmax values (each mutant value - WT average): 0
  ΔpEC50 values (each mutant value - WT average): -0.3351 and -0.4017
[3]; C13S, Mean of fit per experiment
  Emax values: 100
[3]; C13S, n=2
  Span ± SEM (Emax normalized to β-PEA): 100 ± 2.41
  pEC50 ± SEM: 6.73 ± 0.05
[3]; C13S, n=2, read-out: EC50
  EC50: 188 nM
[3]; hTA1 C13S, mean of 3 replicates, one line per independent experiment
  pEC50 values, Mean: 6.758 and 6.6918
[3]; M = -5
  C13S - Normalized Luminescence Counts (N=2): 99.2705 and 93.6371 and 125.268 and 108.514 and 91.163 and 111.602
[3]; M = -5.522
  C13S - Normalized Luminescence Counts (N=2): 84.5018 and 89.7165 and 90.3636 and 93.2337 and 75.9363 and 100.338
